Positions count from the first letter of the chain named.
Assays:
WT NS (neuroserpin) [1] = molecular target: T1, WT NS (neuroserpin) (Homo sapiens, UniProt Q99574, H138C); assay: Bis-ANS fluorescence, excitation […] nm; format: binding; details: 2 uM protein, Bis-ANS 1:5 ratio (10 uM), 25 °C, surface hydrophobicity probe
T1 construct: gene SERPINI1; N-terminal 6-His tag, pET28b, expressed in E. coli BL21(DE3), monomeric
T1 sequence (Q99574 17-410 H138C): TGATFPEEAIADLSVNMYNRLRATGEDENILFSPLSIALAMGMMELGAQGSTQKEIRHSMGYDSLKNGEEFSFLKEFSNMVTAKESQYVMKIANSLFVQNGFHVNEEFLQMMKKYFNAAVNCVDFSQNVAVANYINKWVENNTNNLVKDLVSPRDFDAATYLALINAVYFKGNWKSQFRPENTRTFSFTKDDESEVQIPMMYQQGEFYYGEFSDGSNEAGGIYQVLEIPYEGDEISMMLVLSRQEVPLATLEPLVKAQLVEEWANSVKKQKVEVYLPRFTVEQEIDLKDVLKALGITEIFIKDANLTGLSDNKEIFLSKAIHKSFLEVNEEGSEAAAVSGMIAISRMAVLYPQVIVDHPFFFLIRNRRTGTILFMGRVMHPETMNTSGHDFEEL

WT NS (neuroserpin) [2] = molecular target: T2, WT NS (neuroserpin) (Homo sapiens, UniProt Q99574, H138C/W154C); assay: Bis-ANS fluorescence, excitation […] nm; format: binding; details: 2 uM protein, Bis-ANS 1:5 ratio (10 uM), 25 °C, surface hydrophobicity probe
T2 construct: gene SERPINI1; N-terminal 6-His tag, pET28b, expressed in E. coli BL21(DE3), monomeric
T2 sequence (Q99574 17-410 H138C/W154C): T1 sequence (Q99574 17-410 H138C) with W138C

For `O=S(=O)(O)c1cccc2c(-c3ccc(Nc4ccccc4)c4c(S(=O)(=O)O)cccc34)ccc(Nc3ccccc3)c12` [Bis-ANS, 4,4-Bis-1-anilino naphthalene 8-sulfonate], the “Bis-ANS fluorescence, excitation 390 nm” value (WT NS (neuroserpin) [1]) was “More hydrophobic exposure was observed due to increase Bis-ANS fluorescence in the H138C variant” and the “Bis-ANS fluorescence, excitation 390 nm” value (WT NS (neuroserpin) [2]) was “The double variant showed a decreased fluoroscence emission intensity, and a very high surface hydrophobicity”.

From PMC9760604, “Strand 1A variant in neuroserpin shows increased aggregation and no loss of inhibition: implication in ameliorating polymerization to retain activity” (Bioscience Reports, 2022)
